Data from ChEMBL document CHEMBL5505992, “Novel membrane-targeting isoxanthohumol-amine conjugates for combating methicillin-resistant Staphylococcus aureus (MRSA) infections” (Eur J Med Chem, 2024).
Values after ≈ are worked out from the molar mass of the structure shown. Active and inactive are the calls of the source. The calls are words filed in the database; no cut-off is given here.

Columns and labels:
[1] = tested on: Staphylococcus aureus; experiment: Antibacterial activity against methicillin-resistant Staphylococcus aureus infected in Kunming mouse skin infection model assessed as reduction in number of bacterial cells at 4 mg/kg,sc measured after 24 hrs; format: functional, organism-based
[2] = tested on: Staphylococcus aureus; experiment: Antibacterial activity against methicillin-resistant Staphylococcus aureus infected in Kunming mouse skin infection model assessed as decrease in bacterial load at 4 mg/kg,sc measured after 24 hrs relative to control; format: functional; parameters: scale not given: the % may be the effect or the level left
[3] = tested on: Staphylococcus aureus; experiment: Bactericidal activity against Staphylococcus aureus ATCC 29213 assessed as inhibition of bacterial growth at 8 times MIC measured within 0.5 to 1 hrs by time kill assay; format: functional, organism-based; details: time 0.5-1 hrs
[4] = tested on: Staphylococcus aureus; experiment: Bactericidal activity against methicillin-resistant Staphylococcus aureus clinical isolate MRSA-16 assessed as inhibition of bacterial growth at 8 times MIC measured within 0.5 to 1 hrs by time kill assay; format: functional, organism-based; details: time 0.5-1 hrs
[5] = tested on: Staphylococcus aureus; experiment: Antibacterial activity against methicillin-resistant Staphylococcus aureus infected in Kunming mouse skin infection model assessed as decrease in bacterial load at 4 mg/kg,sc measured after 24 hrs; format: functional
[6] = tested on: Staphylococcus aureus; experiment: Antibacterial activity against methicillin-resistant Staphylococcus aureus infected in Kunming mouse skin infection model assessed as effect on skin abscesses at 4 mg/kg,sc measured after 24 hrs; format: functional, organism-based
[7] = tested on: Staphylococcus aureus; experiment: Antibacterial activity against methicillin-resistant Staphylococcus aureus infected in Kunming mouse skin infection model assessed as effect on skin abscesses in dorsal surface at 4 mg/kg,sc measured after 24 hrs; format: functional, organism-based
[8] = tested on: Staphylococcus aureus; experiment: Antibacterial activity against methicillin-resistant Staphylococcus aureus infected in Kunming mouse skin infection model assessed as reduction in inflammatory cells at 4 mg/kg,sc measured after 24 hrs; format: functional, organism-based
[9] = tested on: Staphylococcus aureus; experiment: Drug resistance, ratio of MIC for Staphylococcus aureus ATCC 29213 after 15 passages exposure to MIC for Staphylococcus aureus ATCC 29213 during first exposure; format: functional
[10] = tested on: Staphylococcus aureus; experiment: Antibacterial activity against Staphylococcus aureus ATCC 29213 at sub-inhibitory concentration measured after 4 passages for 16 to 18 hrs; format: functional, organism-based; details: time 16-18 hrs
[11] = tested on: Staphylococcus aureus; experiment: Antibacterial activity against methicillin-resistant Staphylococcus aureus clinical isolate MRSA-13 measured after 16 to 18 hrs by CLSI method; format: functional; details: time 16-18 hrs
[12] = tested on: Escherichia coli; experiment: Antibacterial activity against Escherichia coli ATCC25922 measured after 16 to 18 hrs by CLSI method; format: functional; details: time 16-18 hrs
[13] = Hemolytic activity in sheep erythrocytes incubated for 1 hr by absorbance based analysis; format: toxicity, cell-based, Ovis aries, Erythrocyte
[14] = tested on: Staphylococcus aureus; experiment: Antibacterial activity against methicillin-resistant Staphylococcus aureus clinical isolate MRSA-20 measured after 16 to 18 hrs by CLSI method; format: functional; details: time 16-18 hrs
[15] = tested on: Staphylococcus aureus; experiment: Antibacterial activity against methicillin-resistant Staphylococcus aureus clinical isolate MRSA-17 measured after 16 to 18 hrs by CLSI method; format: functional; details: time 16-18 hrs
[16] = tested on: Staphylococcus aureus; experiment: Antibacterial activity against methicillin-resistant Staphylococcus aureus clinical isolate MRSA-23 measured after 16 to 18 hrs by CLSI method; format: functional; details: time 16-18 hrs
[17] = tested on: Staphylococcus aureus; experiment: Antibacterial activity against methicillin-resistant Staphylococcus aureus clinical isolate MRSA-22 measured after 16 to 18 hrs by CLSI method; format: functional; details: time 16-18 hrs
[18] = tested on: Staphylococcus aureus; experiment: Antibacterial activity against methicillin-resistant Staphylococcus aureus clinical isolate MRSA-14 measured after 16 to 18 hrs by CLSI method; format: functional; details: time 16-18 hrs
[19] = tested on: Staphylococcus aureus; experiment: Antibacterial activity against methicillin-resistant Staphylococcus aureus clinical isolate MRSA-11 measured after 16 to 18 hrs by CLSI method; format: functional; details: time 16-18 hrs
[20] = tested on: Staphylococcus aureus; experiment: Antibacterial activity against methicillin-resistant Staphylococcus aureus clinical isolate MRSA-16 measured after 16 to 18 hrs by CLSI method; format: functional; details: time 16-18 hrs
[21] = tested on: Staphylococcus aureus; experiment: Antibacterial activity against Staphylococcus aureus ATCC 29213 measured after 16 to 18 hrs by CLSI method; format: functional; details: time 16-18 hrs
[22] = tested on: Staphylococcus aureus; experiment: Antibacterial activity against methicillin-resistant Staphylococcus aureus clinical isolate MRSA-18 measured after 16 to 18 hrs by CLSI method; format: functional; details: time 16-18 hrs
[23] = tested on: Staphylococcus aureus; experiment: Antibacterial activity against methicillin-resistant Staphylococcus aureus clinical isolate MRSA-21 measured after 16 to 18 hrs by CLSI method; format: functional; details: time 16-18 hrs
[24] = Selectivity index, ratio of HC50 for hemolytic activity in sheep erythrocytes to MIC for antibacterial activity against Staphylococcus aureus ATCC 29213; format: toxicity, cell-based; details: read-out: Selectivity Index

| Structure (SMILES) | MIC [11] | MIC [12] | HC50 at 1 h [13] | MIC [14] | MIC [15] | MIC [16] | MIC [17] | MIC [18] | MIC [19] | MIC [20] | MIC [21] | MIC [22] | MIC [23] | selectivity ratio [24] | other results |
| --- | --- | --- | --- | --- | --- | --- | --- | --- | --- | --- | --- | --- | --- | --- | --- |
| CN[C@H](CC(C)C)C(=O)N[C@H]1C(=O)N[C@@H](CC(N)=O)C(=O)N[C@H]2C(=O)N[C@H]3C(=O)N[C@H](C(=O)N[C@H](C(=O)O)c4cc(O)cc(O)c4-c4cc3ccc4O)[C@H](O)c3ccc(c(Cl)c3)Oc3cc2cc(c3O[C@@H]2O[C@H](CO)[C@@H](O)[C@H](O)[C@H]2O[C@H]2C[C@](C)(N)[C@H](O)[C@H](C)O2)Oc2ccc(cc2Cl)[C@H]1O [VANCOMYCIN] | – | – | – | – | – | – | – | – | – | – | – | – | – | – | Activity [1]: Active; Activity [2]: 97.67%; Activity [3]: Active; Activity [4]: Active; Activity [5]: 1.6 log10CFU/g; Activity [6]: Active; Activity [7]: Active; Activity [8]: Active |
| CCn1cc(C(=O)O)c(=O)c2cc(F)c(N3CCNCC3)cc21 [NORFLOXACIN] | – | – | – | – | – | – | – | – | – | – | – | – | – | – | fold change (FC) [9]: 128; Activity [10]: Active |
| COc1cc(OCCCCCN2CCCC(C)C2)c(CC=C(C)C)c2c1C(=O)CC(c1ccc(OCCCCCN3CCCC(C)C3)cc1)O2 (stereo not given) | 8 µg/mL (≈ 11.6 µM) | > 128 µg/mL | 211 µg/mL | 8 µg/mL (≈ 11.6 µM) | 8 µg/mL (≈ 11.6 µM) | 8 µg/mL (≈ 11.6 µM) | 8 µg/mL (≈ 11.6 µM) | 8 µg/mL (≈ 11.6 µM) | 8 µg/mL (≈ 11.6 µM) | 8 µg/mL (≈ 11.6 µM) | 16 µg/mL (≈ 23.2 µM) | 8 µg/mL (≈ 11.6 µM) | 4 µg/mL (≈ 5.81 µM) | 13.2 | – |
| COc1cc(OCCCCN2CCCCC2)c(CC=C(C)C)c2c1C(=O)CC(c1ccc(OCCCCN3CCCCC3)cc1)O2 (stereo not given) | 16 µg/mL (≈ 25.3 µM) | > 128 µg/mL | 199 µg/mL | 16 µg/mL (≈ 25.3 µM) | 16 µg/mL (≈ 25.3 µM) | 16 µg/mL (≈ 25.3 µM) | 16 µg/mL (≈ 25.3 µM) | 32 µg/mL (≈ 50.6 µM) | 16 µg/mL (≈ 25.3 µM) | 16 µg/mL (≈ 25.3 µM) | 32 µg/mL (≈ 50.6 µM) | 32 µg/mL (≈ 50.6 µM) | 32 µg/mL (≈ 50.6 µM) | > 6.2 | – |
| COc1cc(OCCCCCN2CCCCC2)c(CC=C(C)C)c2c1C(=O)CC(c1ccc(OCCCCCN3CCCCC3)cc1)O2 (stereo not given) | 8 µg/mL (≈ 12.1 µM) | > 128 µg/mL | 151 µg/mL | 8 µg/mL (≈ 12.1 µM) | 4 µg/mL (≈ 6.05 µM) | 8 µg/mL (≈ 12.1 µM) | 8 µg/mL (≈ 12.1 µM) | 8 µg/mL (≈ 12.1 µM) | 8 µg/mL (≈ 12.1 µM) | 8 µg/mL (≈ 12.1 µM) | 8 µg/mL (≈ 12.1 µM) | 8 µg/mL (≈ 12.1 µM) | 8 µg/mL (≈ 12.1 µM) | 18.9 | – |
| COc1cc(OCCCN2CCCCC2C)c(CC=C(C)C)c2c1C(=O)CC(c1ccc(OCCCN3CCCCC3C)cc1)O2 (stereo not given) | 32 µg/mL (≈ 50.6 µM) | > 128 µg/mL | > 1280 µg/mL | 32 µg/mL (≈ 50.6 µM) | 32 µg/mL (≈ 50.6 µM) | 32 µg/mL (≈ 50.6 µM) | 16 µg/mL (≈ 25.3 µM) | 32 µg/mL (≈ 50.6 µM) | 32 µg/mL (≈ 50.6 µM) | 16 µg/mL (≈ 25.3 µM) | 32 µg/mL (≈ 50.6 µM) | 32 µg/mL (≈ 50.6 µM) | 32 µg/mL (≈ 50.6 µM) | > 40 | – |
| COc1cc(OCCCCN2CCCCC2C)c(CC=C(C)C)c2c1C(=O)CC(c1ccc(OCCCCN3CCCCC3C)cc1)O2 (stereo not given) | 32 µg/mL (≈ 48.4 µM) | > 128 µg/mL | 275 µg/mL | 32 µg/mL (≈ 48.4 µM) | 16 µg/mL (≈ 24.2 µM) | 32 µg/mL (≈ 48.4 µM) | 16 µg/mL (≈ 24.2 µM) | 16 µg/mL (≈ 24.2 µM) | 8 µg/mL (≈ 12.1 µM) | 32 µg/mL (≈ 48.4 µM) | 32 µg/mL (≈ 48.4 µM) | 32 µg/mL (≈ 48.4 µM) | 32 µg/mL (≈ 48.4 µM) | > 8.6 | – |
